# Data: patent US11213513B2, “Compositions and methods for promoting hair growth with Mpc1 inhibitors” (The Regents of the University of California, priority 2017, dated 2022)
# Entries after “also recorded” stand apart in the source; their conditions may differ.
# Columns and labels:
# Type in all cases: in vivo, mouse
# Ldh = test: In situ Ldh enzyme activity assay in epidermis of topically treated animals; conditions: in situ stain
# Text: (§1) Animals were acquired from Jackson Labs (K15-CrePR, Lgr5-CreER and Lgr6-CreER), Rutter Lab (Mpc^fl/fl) and Seth Lab (Ldha^fl/fl) (Xie, H. et al., Cell Metab., 19, 795-809 (2014)) and maintained under conditions set forth by IUCUC and ARC. For experiments that include analysis of the telogen stage of the hair cycle, animals were harvested at post-natal day 50, for telogen-anagen transition animals were harvested at day 70, and for anagen animals were harvested at post-natal day 90. For experiments that include analysis of transgenic animals, K15-CrePR animals were shaved and treated by intraperitoneal injections of mifepristone and Lgr5-CreER and Lgr6-CreER animals were shaved and treated with tamoxifen (10 mg/ml dissolved in sunflower seed oil, 2 mg per day for 3 days) during telogen (post-natal day 50), and monitored for hair regrowth following shaving. Phenotypes shown from treated animals were produced 3-4 weeks after mifepristone administration. For FIG. 3, wildtype C57BL/6J animals were shaved at post-natal day 50 and treated topically with Transderma PLO Gel (premium lecithin organogel), PLO Gel Ultramax Base (TR220) (vehicle), or the compound of formula (I) (Compound (I)) (20 μM) (Sigma Aldrich product PZ0160) for indicated periods of time. […]
# 17 month old mice = test: Treatment of elderly (17 month old) shaved mice, hair coat re-growth; conditions: 20 uM in PLO gel every other day, up to 30 days after shaving; DMSO control patchy
# Protocol: 17 month old mice were shaved and treated every other day with DMSO or 20 uM of the compound of formula (I) diluted in PLO gel (pluronic lecithin organogel). Images were acquired at the indicated day after shaving and carried out for 30 days.
# HFSCs = test: Metabolomic analysis (LC-MS) of lactate in HFSCs sorted from topically treated skin
# Text: as §1, with “administration.” for “administration. For FIG. 3, wildtype C57BL/6J animals were shaved at post-natal day 50 and treated topically with Transderma PLO Gel (premium lecithin organogel), PLO Gel Ultramax Base (TR220) (vehicle), or the compound of formula (I) (Compound (I)) (20 μM) (Sigma Aldrich product PZ0160) for indicated periods of time.”
# Whole dorsal and ventral mouse skin were excised and floated on trypsin (0.25%) for 1 h at 37° C. or overnight at 4° C. […] The cells were then filtered through a […] cell strainer and stained for fluorescence-activated cell sorting (FACS) processing with CD34 Monoclonal Antibody (RAM34), FITC, eBioscience™ (Catalog #:11-0341-82) and CD49d (Integrin alpha 4) Monoclonal Antibody (R1-2), PE, eBioscience™ (Catalog #: 12-0492-81). […]
# [1] = system: wildtype C57BL/6J animals; test: Topical treatment of shaved telogen (day 50) mice, monitoring pigmentation, hair growth and hair cycle
# Text: Animals were acquired from Jackson Labs (K15-CrePR, Lgr5-CreER and Lgr6-CreER), Rutter Lab (Mpc^fl/fl) and Seth Lab (Ldha^fl/fl) (Xie, H. et al., Cell Metab., 19, 795-809 (2014)) and maintained under conditions set forth by IUCUC and ARC. For experiments that include analysis of the telogen stage of the hair cycle, animals were harvested at post-natal day 50, for telogen-anagen transition animals were harvested at day 70, and for anagen animals were harvested at post-natal day 90. For experiments that include analysis of transgenic animals, K15-CrePR animals were shaved and treated by intraperitoneal injections of mifepristone and Lgr5-CreER and Lgr6-CreER animals were shaved and treated with tamoxifen (10 mg/ml dissolved in sunflower seed oil, 2 mg per day for 3 days) during telogen (post-natal day 50), and monitored for hair regrowth following shaving. Phenotypes shown from treated animals were produced 3-4 weeks after mifepristone administration. For FIG. 3, wildtype C57BL/6J animals were shaved at post-natal day 50 and treated topically with Transderma PLO Gel ([…] lecithin organogel), PLO Gel Ultramax Base (TR220) (vehicle), or the compound of formula (I) (Compound (I)) (20 μM) (Sigma Aldrich product PZ0160) for indicated periods of time. Both male and female animals were used in this study in approximately equal numbers with no apparent difference in phenotype between genders. All phenotypes described are representative of a minimum of n=3 littermate pairs as indicated in the description of each experiment. No statistical measure was used to determine the sample size beforehand, nor were statistics used to measure effects, as the results were essentially positive or negative as represented in the figures. The results described include data from all treated animals. The investigators were not blinded to allocation during the experimental data collection, nor were the experiments randomized. The results shown were representative images from at least three independently treated animals, and genotyping was performed both before and after animal treatment for confirmation.
# Tissues were isolated from the indicated genotypes and embedded fresh in optimal cutting temperature (OCT) compound for frozen tissue preparations, or fixed overnight in 4% formalin and embedded in paraffin. For frozen tissue, sectioning was performed on a Leica 3200 Cryostat, and fixed for 5 minutes in 4% paraformaldehyde. Paraffin embedded tissue was sectioned, de-paraffinized, and prepared for histology. All sections prepared for staining were blocked in staining buffer containing appropriate control IgG (Goat, Rabbit etc.). Immunohistochemistry was performed on formalin-fixed paraffin-embedded tissue with citrate or Tris buffer antigen retrieval with the following antibodies: Ki67 (Abcam ab16667, 1:50), p-S6 (Cell Signaling CST2215, 1:50), Sox9 (Abcam ab185230, 1:1000), Ldha (Abcam ab47010, 1:100), Ldh (Abcam ab125683, 1:100), p-Stat3 (Abcam ab68153, 1:200), p-Stat1 (Abcam ab109461, 1:200), p-Stat5 (Abcam ab32364; 1:50), Gli3 (Abcam ab6050; 1:100), β-catenin (Abcam ab32572; 1:500). The DAKO EnVision+ HRP Peroxidase System (Dako K400911-2) and Dako AEC Substrate Chromogen (Dako K346430-2) was used for detection. Images were collected on an Olympus BX43 Upright Microscope and Zeiss Model Axio Imager M1 Upright Fluorescence Microscope. Protein samples for western blots and enzymatic assays were extracted from FACS sorted epidermal populations in RIPA lysis buffer (Pierce) with Halt protease and phosphatase inhibitors (Thermo-Fisher) and precipitated in acetone for concentration. The following antibodies were used: β-actin (Abcam ab8227; 1:1000), β-actin (Santa Cruz sc-47778; 1:1000), C-Myc (Abcam ab32072; 1:1000), N-Myc (Santa Cruz sc-53993; 1:200), H3K27Ac (Abcam ab177178; 1:200), Mpc1 (Sigma HPA045119).
# Both male and female animals were used in this study in approximately equal numbers with no apparent difference in phenotype between genders. […]
# [2] = topical treatment of animals in telogen (day 50)
structure (smiles),measurement,setting,value
N#CC(=Cc1cn(-c2ccccc2)c2ccccc12)C(=O)O [compound of formula (I)],Ldh enzyme activity in interfollicular epidermis,Ldh; topical application for 48 hours during telogen,increased Ldh activity in the interfollicular epidermis; also recorded: also seen in interfollicular epidermis
same,Ldh enzyme activity in HFSCs,Ldh; topically treated animals,strong activity in HFSCs
same,hair coat re-growth in aged mice,17 month old mice,more complete re-growth; also recorded: more complete hair growth
same,"lactate levels, replicate experiment",HFSCs; 48-72 hours of treatment,increase in lactate levels
same,total levels of lactate in sorted HFSCs,"HFSCs; topical application, 48 hours",increases total levels of lactate
same,effect on proliferation of the interfollicular epidermis,[1]; [2],minor hyperproliferation of the interfollicular epidermis
same,effect on the hair cycle,[1]; [2],robust acceleration of the hair cycle
same,"time of treatment to full anagen, indicated by full coat of hair","[1]; topical, 20 μM",14 days
same,skin pathology: anagen entry (down growth of the follicle and hypodermal thickening),"[1]; topical, 20 μM, vehicle animals remained in telogen",entered an accelerated anagen at 8 weeks
same,"time of treatment to pigmentation and hair growth, indicative of entry into anagen","[1]; topical, 20 μM, vehicle control showed none even after 12 days",8 days
same,time to beginning of hair cycle acceleration (time to observed phenotype),"[1]; topical, at least 6 pairs of animals, vehicle vs compound",3 to 5 days
